Source: US20250073209A1, “COVALENT TARGETING OF RhoA FOR CANCER THERAPY” (The University of Hong Kong, priority 2023, published 2025)

Columns and labels:
HT29 cells = test: Transwell (Matrigel) invasion assay; type: cell-based, human; details: HT29, 24 h
SW620 spheroid = test: Spheroid formation assay, SW620; type: cell-based, human
Method: FIGS. 5A-5B are graphs showing the anticancer effects of CL16 in HT29 (FIG. 5A) and SW620 (FIG. 5B) spheroids. HT29 spheroid or SW620 spheroid were treated with CL16 at the indicated concentrations for 10 days. The spheroids were then imaged by microscope using 10× objective and the size was determined by ImageJ.
5,000 cells of HT29 and SW620 cells were inoculated in serum-free DMEM/F12 medium with 20 ng/mL […] growth factor (EGF) in 96-well round-bottom low-affinity plate (Nunc). Medium was supplemented with CL16 or Rhosin when spheroid has formed an opaque core. Morphology was recorded under a light microscope with 10× objective.
To further investigate the anticancer effects of CL16, HT29 and SW620 cells were inoculated as spheroids in low-affinity plate with 20 ng/mL EGF, and incubated with different concentrations of CL16 or Rhosin.

HCT116 cells = test: Apoptosis assay with Caspase-3/7 Green Detection Reagent; type: cell-based, human; details: HCT116, 24 h
Method: HCT116 cells were seeded onto a poly-D-lysine coated Ibidi 8-well chamber slide (20,000 cells) and cultured overnight in complete medium at 37° C. with 5% CO2. The cells were treated with DMSO control, Rhosin or CL16 at the indicated concentration along with 5 μM of CellEvent™ Caspase- 3/7 green in serum-free medium for 24 h. Prior to imaging, the medium was exchanged for Hanks' Balanced Salt Solution (HBSS). Confocal fluorescence microscopy was performed using a Zeiss laser scanning microscope 880 with a 20× water-immersion objective lens and ZEN 2.3 (Black Version) software (Carl Zeiss). CellEvent™ Caspase- 3/7 green was excited by a 488 nm diode laser and emission was collected on a META detector between 490 and 525 nm. Image analysis was performed on ImageJ where the number of cells expressing fluorescence within the field was counted against the total number of cells to report the percentage of apoptotic cells. The average percentage was calculated from 3 separate images from the same well.
The effects of CL16 treatment on cell cycle checkpoint proteins were investigated with immunoblotting of the cell cycle checkpoint proteins in SW620 and HT29 cells after CL16 treatment for 24 h. […] Caspase- 3/7 Green Detection Reagent was used to study apoptosis in HCT116 cells treated with Rhosin by confocal fluorescence imaging. […]

CRC xenografts = test: H&E and immunohistochemistry on tissues of nude mice with CRC xenografts; type: in vivo, mouse
Excerpt: FIGS. 14A and 14B are graphs showing immunohistochemistry staining scores for the images of H&E and immunohistochemistry staining of Ki67 (FIG. 14A) and cleaved caspase-3 staining (FIG. 14B) of tumor tissues from the vehicle- or CL16-treated mice. FIGS. 14C and 14D are graphs showing immunohistochemistry staining scores for the images of H&E, Ki67 (FIG. 14C) and cleaved caspase-3 (FIG. 14D) staining of tumor tissues from the vehicle- or CL16-treated mice with HT29 xenografts.
After confirming the anticancer properties of CL16 on CRC cells and RhoA Cys16 as its primary molecular target, the anticancer effect of CL16 in vivo was studied.

RhoA [1] = biological target: RhoA (Homo sapiens, UniProt P61586); test: Fluorescence-based assay of Dbs-mediated GTP binding onto RhoA; type: biochemical; details: increasing concentrations of CL16
HT29 xenograft = test: Mouse HT29 xenograft model; type: in vivo
Method: FIG. 7A is a graph showing inhibition of tumor growth by CL16 in mouse HCT116 xenografts through intraperitoneal injection at 10 mg/kg (n=6 per group). FIG. 7B is a graph showing inhibition of tumor growth by CL16 in mouse HT29 xenografts through intraperitoneal injection at 10 mg/kg (n=7). FIG. 7C is a graph showing the body weight of mice with HT29 xenografts throughout the treatment with CL16. FIG. 7D is a graph showing inhibition of tumor growth by CL16 in mouse SW620 xenografts through intraperitoneal injection at 10 mg/kg (n=6 per group). FIG. 7E is a bar graph showing the tumor weight of harvested tumors from the treated mice with SW620 xenografts. FIG. 7F is a graph showing the body weight of mice with SW620 xenografts throughout the treatment with CL16. Statistical analysis using a two-tailed Student's t-test. *P<0.05.
7-week-old mice with weight around 20 g were inoculated subcutaneously with HCT116 (2×10^6 cells per mouse) or HT29 (3×10^6 cells per mouse) cells, in serum-free RMPI or Matrigel in PBS respectively. […] The tumor volume and body weight of the nude mice were measured throughout the treatment. The tumor volume was calculated by the equation: Volume (mm^3)=1×w^2/2, where 1 and w were the length and width of the tumor. At the end of the treatment, the mice were sacrificed and the tumor weight was measured. […]

RhoA [2] = test: FRET-RhoA biosensor imaging, serum re-stimulation; type: cell-based, human; details: transfected cells, serum-free 24 h, 10% FBS 10 min
Method: To further validate the inhibitory effects of CL16 on RhoA, HCT116 and HT29 cells were transfected with a FRET-RhoA biosensor, where cells with elevated RhoA activity would show a higher FRET/mTFP1. Specifically, HCT116 cells transfected with FRET-RhoA biosensor were treated with CL16 or solvent in serum-free medium for 24 h, washed with PBS, re-stimulated with 10% FBS for 10 min, washed, and then imaged in HBSS by confocal fluorescence microscopy. […] In addition, HCT116 cells were serum-starved and treated with CL16 or Rhosin for 24 h, followed by 10% FBS re-stimulation for 10 min. The cells were then washed and fixed by 4% paraformaldehyde, washed with PBS and stained with Alexa Fluor 488-Phalloidin in PBS (1:20, v/v) at room temperature for 15 min. The cells were washed with PBS, incubated with Hoechst (8.2 μM) in PBS for 15 min, washed and then imaged in PBS by confocal fluorescence microscopy. […] Since RhoA regulates cytoskeletal dynamics and RhoA activation can induce the formation of contractile F-actin, the reduction of F-actin fibers by CL16 treatment supports its inhibitory roles on RhoA signaling.

RhoA (Homo sapiens, UniProt P61586), sequence (P61586 whole entry): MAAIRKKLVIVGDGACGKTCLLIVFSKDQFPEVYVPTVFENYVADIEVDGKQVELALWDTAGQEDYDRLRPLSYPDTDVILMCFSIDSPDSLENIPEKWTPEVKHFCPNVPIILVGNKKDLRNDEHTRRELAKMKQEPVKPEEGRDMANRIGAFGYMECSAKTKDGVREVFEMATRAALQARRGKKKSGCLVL

O=C(CCl)N1N=C(c2cc3ccccc3o2)CC1c1ccco1 (centres unmarked) [CL16]
cell invasion (HT29 cells): good efficacy in reducing HT29 cell migration and invasion | growth of SW620 spheroids (SW620 spheroid; 20 ng/mL EGF, low-affinity plate): significant inhibitions in the growth | IC50 (SW620 spheroid; Homo sapiens, SW-620, 240 h, 10 days, read-out: cytotoxic IC50 in SW620 spheroids): 4.1 µM | cell apoptosis (HCT116 cells): mediated cell apoptosis | H&E staining of major organs (CRC xenografts; CL16-treated mice): no observable damages on major organs | Ki67 immunohistochemistry on tumor tissues (CRC xenografts; CL16-treated vs solvent): reduction in Ki67 | cleaved caspase-3 level in tumor tissues (CRC xenografts; CL16-treated vs vehicle): elevated cleaved caspase-3 level | kinetics of Dbs-mediated GTP binding onto RhoA (RhoA [1]): significant decrease in the kinetics | body weight, treated vs untreated (HT29 xenograft; HT29 xenografts, FIG. 7C): no observable difference | tumor growth vs vehicle control (HT29 xenograft; nude mice, 10 mg/kg intraperitoneal): significantly inhibited tumor growth | FRET/mTFP1 upon serum re-stimulation (RhoA [2]): abolishment of the increase in FRET/mTFP1
